Measured values taken from patent US8084399B2, “Process for screening of a binding amphiphilic peptides specific for hairpin RNA” (priority 2009, dated 2011).
Where no end group is shown, it is not given here. [ ]: non-standard residue; d: D form. Orn = NCCC[C@H](N)C(=O)O; Dab = NCC[C@H](N)C(=O)O; Dap = NC[C@H](N)C(=O)O

Columns and labels:
[1] = Circular dichroism (CD), percentage of alpha-helix; format: physicochemical; settings: CD at 20° C., condition not given; for Alpha-helical rate (%), second value of pair: value after the slash; for Alpha-helical rate (%), first value of pair: value before the slash
In short: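 Spectra recorded at 20 °C, 190–250 nm, three averaged scans, background-corrected and converted to mean residue ellipticity. Helix fraction derived from [θ] at 222 nm relative to full-helix and random-coil reference values, which depend on residue number and temperature.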

[2] = biological target: RRE hairpin RNA; assay: Fluorescence anisotropy competition with Rev-N-rhodamine probe, binding to RRE hairpin RNA; design: species or system HIV; settings: 20° C., pH 7.4, read-out: Dissociation constant, RRE
In short: (§1)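 Competitive fluorescence anisotropy at 20° C in 20 mM HEPES pH 7.4, 140 mM NaCl, 5 mM KCl, 1 mM MgCl2. Heat-refolded target RNA bound to 10 nM Rev-N-rhodamine probe; peptide titrated until anisotropy returned to baseline, and Kd fitted from a competition binding equation.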

[3] = biological target: TAR hairpin RNA; assay: Fluorescence anisotropy competition with Rev-N-rhodamine probe, binding to TAR hairpin RNA; design: species or system HIV; settings: fluorescence anisotropy, 20° C., pH 7.4; read-out: Dissociation constant, TAR
In short: as §1

[4] = system: IRES RNA; assay: Tryptophan fluorescence strength on addition of target RNA; format: binding, HCV
Protocol: Fluorescence strength was measured to investigate target RNA binding of the third generation peptides. When tryptophan is activated by 285 nm light, it becomes fluorescent at the wavelength. Changes of fluorescence resulted from the binding respectively to different targets such as IRES, RRE, TAR and 16S A-site RNA, were measured. 0.02 equivalent of target RNA was added slowly to 1 uM peptide solution containing tryptophan.

[5] = biological target: 16S ribosomal RNA A-site; assay: Fluorescence anisotropy competition with Rev-N-rhodamine probe, binding to 16S A-site; settings: 20° C., pH 7.4, read-out: Dissociation constant, 16S A-site
In short: as §1

[6] = system: IRES domain IV hairpin; assay: Fluorescence anisotropy competition with Rev-N-rhodamine probe, binding to IRES hairpin; design: species or system HCV; settings: for differentiation coefficient (IRES): (mean Kd to other hairpin RNA)/(Kd to one hairpin RNA); for Kd: fluorescence anisotropy, 20° C., pH 7.4, read-out: Dissociation constant, IRES
In short: as §1

[7] = system: IRES RNA; assay: Solid surface method (biotin peptide on streptavidin plate, isotope-labeled RNA) with or without tRNAmix; format: binding, HCV; settings: comparison with/without tRNAmix, in words
Protocol: Solid surface method was performed to investigate specificity to target RNA of the third generation peptides. Particularly, biotin was conjugated to N-terminal of the peptide, resulting in the preparation for streptavidin binding. 5′-end of target RNA was labeled with an isotope. Streptavidin coated plate was prepared, to which the amphiphilic peptide was adhered at different concentrations. The plate was reacted with a certain amount of the isotope-labeled RNA, followed by washing. Only the RNA conjugated with the amphiphilic peptide was obtained. IC50 was calculated based on the concentration of the target RNA. Experiments were performed in the presence and in the absence of tRNA^mix (Sigma-Aldrich, Germany), and the results were compared.

Row | Substance | Alpha-helical rate (%), second value of pair [1] [%] | Alpha-helical rate (%), first value of pair [1] [%] | Kd [2] [nM] | Kd [3] [nM] | Fluorescence strength of tryptophan at #7 reduced from that of tryptophan at #14 of peptide 3h ([4]; in the presence of IRES) [fold] | Kd [5] [nM] | differentiation coefficient (IRES) [6] | Kd [6] [nM] | IC50 to IRES RNA in the presence or in the absence of tRNAmix [7] | Fluorescence strength of tryptophan reduced by ([4]; wavelength moved to shorter site, IRES) [fold] | binding strength to IRES, in words ([6]; compared with the original peptide)
1 | LKKLLKWLOrnKLLDapLAG (LKKLLKWL[Orn]KLL[Dap]LAG-NH2; N-terminus assumed; SMILES CC(C)C[C@H](NC(=O)[C@H](CN)NC(=O)[C@H](CC(C)C)NC(=O)[C@H](CC(C)C)NC(=O)[C@H](CCCCN)NC(=O)[C@H](CCCN)NC(=O)[C@H](CC(C)C)NC(=O)[C@H](Cc1c[nH]c2ccccc12)NC(=O)[C@H](CCCCN)NC(=O)[C@H](CC(C)C)NC(=O)[C@H](CC(C)C)NC(=O)[C@H](CCCCN)NC(=O)[C@H](CCCCN)NC(=O)[C@@H](N)CC(C)C)C(=O)N[C@@H](C)C(=O)NCC(N)=O) [peptide 3d, third generation peptide, both faces modified] | 38 | 32 | 26 | 24 | 2.3 | 25 | 45 | 0.55 | not much different |  | 
2 | LKKLLKLLKKLLKWAG [2u, tryptophan scanned second generation peptide] | 52 | 20 | 18 | 7.8 |  | 3.3 | 14 | 0.69 |  | 1.6 | significantly increased
3 | LKKLLKLLOrnKLLDapWAG (LKKLLKLL[Orn]KLL[Dap]WAG-NH2; N-terminus assumed; SMILES CC(C)C[C@H](NC(=O)[C@H](CC(C)C)NC(=O)[C@H](CCCCN)NC(=O)[C@H](CCCN)NC(=O)[C@H](CC(C)C)NC(=O)[C@H](CC(C)C)NC(=O)[C@H](CCCCN)NC(=O)[C@H](CC(C)C)NC(=O)[C@H](CC(C)C)NC(=O)[C@H](CCCCN)NC(=O)[C@H](CCCCN)NC(=O)[C@@H](N)CC(C)C)C(=O)N[C@@H](CN)C(=O)N[C@@H](Cc1c[nH]c2ccccc12)C(=O)N[C@@H](C)C(=O)NCC(N)=O) [peptide 3h, third generation peptide, both faces modified] | 56 | 12 | 28 | 15 |  | 19 | 1.6 | 13 |  |  | 
4 | LKKLLKLLOrnKLLKWAG (LKKLLKLL[Orn]KLLKWAG-NH2; N-terminus assumed; SMILES CC(C)C[C@H](NC(=O)[C@H](CC(C)C)NC(=O)[C@H](CCCCN)NC(=O)[C@H](CCCN)NC(=O)[C@H](CC(C)C)NC(=O)[C@H](CC(C)C)NC(=O)[C@H](CCCCN)NC(=O)[C@H](CC(C)C)NC(=O)[C@H](CC(C)C)NC(=O)[C@H](CCCCN)NC(=O)[C@H](CCCCN)NC(=O)[C@@H](N)CC(C)C)C(=O)N[C@@H](CCCCN)C(=O)N[C@@H](Cc1c[nH]c2ccccc12)C(=O)N[C@@H](C)C(=O)NCC(N)=O) [3f, third generation peptide, both faces modified] | 58 | 36 | 3.6 | 4.7 |  | 10 | 1.0 | 6.1 |  |  | 
5 | LKKLLDabLLKKLLDapLAG (LKKLL[Dab]LLKKLL[Dap]LAG-NH2; N-terminus assumed; SMILES CC(C)C[C@H](NC(=O)[C@H](CN)NC(=O)[C@H](CC(C)C)NC(=O)[C@H](CC(C)C)NC(=O)[C@H](CCCCN)NC(=O)[C@H](CCCCN)NC(=O)[C@H](CC(C)C)NC(=O)[C@H](CC(C)C)NC(=O)[C@H](CCN)NC(=O)[C@H](CC(C)C)NC(=O)[C@H](CC(C)C)NC(=O)[C@H](CCCCN)NC(=O)[C@H](CCCCN)NC(=O)[C@@H](N)CC(C)C)C(=O)N[C@@H](C)C(=O)NCC(N)=O) [2l, second generation peptide, hydrophilic face modified] | 50 | 40 | 14 | 16 |  | 14 | 13 | 1.1 |  |  | 
6 | LKKLLDapLLKKLLKLAG (LKKLL[Dap]LLKKLLKLAG-NH2; N-terminus assumed; SMILES CC(C)C[C@H](NC(=O)[C@H](CCCCN)NC(=O)[C@H](CC(C)C)NC(=O)[C@H](CC(C)C)NC(=O)[C@H](CCCCN)NC(=O)[C@H](CCCCN)NC(=O)[C@H](CC(C)C)NC(=O)[C@H](CC(C)C)NC(=O)[C@H](CN)NC(=O)[C@H](CC(C)C)NC(=O)[C@H](CC(C)C)NC(=O)[C@H](CCCCN)NC(=O)[C@H](CCCCN)NC(=O)[C@@H](N)CC(C)C)C(=O)N[C@@H](C)C(=O)NCC(N)=O) [2c, second generation peptide, hydrophilic face modified] | 61 | 26 | 9.6 | 5.7 |  | 12 | 2.4 | 3.8 |  |  | 
